Measured values taken from patent publication US6432952B1, “Polymorphic form of a tachykinin receptor antagonist” (Merck & Co., Inc., priority 1999, dated 2002).
Like-named read-outs stand apart in the source and are kept apart here.

How the values were obtained:
[1] = Stability of the crystalline form as neat solid; type: physicochemical
[2] = Solubility in isopropyl acetate; type: physicochemical
Procedure: Solubility The solubility of Form I of 2-(R)-(1-(R)-(3,5-bis(trifluoromethyl)-phenyl)ethoxy)-4-(5-(dimethylamino)methyl-1,2,3-triazol-4-yl)methyl-3-(S)-(4-fluorophenyl)morpholine hydrochloride in isopropyl acetate at 25° C. was determined to be 7.4±0.3 mg/ml.

[3] = system: retching and vomiting induced by cisplatin; experiment: Ferret model of cisplatin-induced emesis (Tattersall et al.); type: in vivo

SMILES	thermodynamic stability relative to the other form ([1]; Form I versus Form II)	thermal stability ([1]; as a neat solid)	solubility [2] [µg/mL]	solubility ([2]; 25 °C, organic solvent or mixture, solubility) [µg/mL]	thermodynamic stability of Form I over Form II, from the ratio of the solubilities ([2]; at 25° C., isopropyl acetate)	effect on retching and vomiting induced by cisplatin [3]
C[C@@H](O[C@H]1OCCN(Cc2nn[nH]c2CN(C)C)[C@H]1c1ccc(F)cc1)c1cc(C(F)(F)F)cc(C(F)(F)F)c1.Cl [Form I, 2-(R)-(1-(R)-(3,5-bis(trifluoromethyl)phenyl)ethoxy)-4-(5-(dimethylamino)methyl-1,2,3-triazol-4-yl)methyl-3-(S)-(4-fluorophenyl)morpholine hydrochloride]	thermodynamically more stable than Form II	high degree of thermal stability	10900 ± 1100	7400 ± 300	approximately 0.2 kcal/mol	–
C[C@@H](O[C@H]1OCCN(Cc2nn[nH]c2CN(C)C)[C@H]1c1ccc(F)cc1)c1cc(C(F)(F)F)cc(C(F)(F)F)c1.Cl [compound of the present invention, 2-(R)-(1-(R)-(3,5-bis(trifluoromethyl)phenyl)ethoxy)-4-(5-(dimethylamino)methyl-1,2,3-triazol-4-yl)methyl-3-(S)-(4-fluorophenyl)-morpholine hydrochloride]	–	–	–	–	–	attenuate the retching and vomiting induced by cisplatin
